Test results as given in patent US9060516B2, “Method for controlling aquatic weeds” (BASF SE, priority 2005, dated 2015).

How the values were obtained:
Hydrilla verticillata = test: Greenhouse test, static exposure of Hydrilla verticillata to quinclorac in water columns; assay type: in vivo; conditions: for Hydrilla Shoot Length: static exposure, 11 weeks after treatment, control 30.4 cm, LSD at 0.05 = 11.5
Procedure: To begin the experiment, PVC cylinders were filled and maintained with a volume of 4000 ml of dichlorinated water that was maintained at room temperature (24° C.). To each cylinder, an established hydrilla plant (potted in sand mixture) was transferred into the water column. Hydrilla plants were selected for uniformity and length of shoot growth (approx 15 cm). Plants were allowed to equilibrate in the columns for 24 hrs prior to herbicide treatment. Experimental treatments included an untreated control, and quinclorac at 50, 250 and 500 ppb of actual acid equivalent of herbicide. Treatments were applied to water columns by the use of a pipette. Amount of herbicide applied was based on the total volume of the cylinders (4000 ml). After initial herbicide treatment, the water columns were gently stirred to ensure uniform distribution. Treatments were arranged as a completely random design with 3 replications. Each cylinder was considered the experimental unit. Greenhouse conditions were maintained at 24/18° C. (day/night) cycle for the duration of the experiment. Natural day length was supplemented with halogen lighting to provide a 14 hr photoperiod. Water level in the cylinders was periodically checked and maintained at the 4000 ml level for the duration of the study. After 11 weeks of exposure, hydrilla shoot lengths were measured to ascertain herbicide effects.

[1] = test system: Mixed population of submersed weed species: Hydrilla verticillata and Egeria densa; test: Greenhouse test, static exposure of a mixed population of submersed weed species to quinmerac and quinclorac; assay type: in vivo; conditions: for Shoot Fresh / Shoot Length: static exposure, 12 weeks after treatment; for Shoot Fresh: control 6.8 g, LSD at 0.05 = 3.1; for Shoot Length: control 37.3 cm, LSD at 0.05 = 17.4
Procedure: To begin the experiment, containers were filled and maintained with a volume of 4000 ml of distilled water that was maintained at room temperature (24° C.). To each container, established weed plants (potted in sand mixture) were transferred into the water column. Plants were selected for uniformity and length of shoot growth (approx 15 cm). Plants were allowed to equilibrate in the containers for 24 hrs prior to herbicide treatment. Experimental treatments included an untreated control, quinmerac at 100, 250, and 500 ppb, as well as, quinclorac at 250 ppb of actual acid equivalent of herbicide. Treatments were applied to water columns by the use of a pipette. Amount of herbicide applied was based on the total volume of the containers (4000 ml). After initial herbicide treatment, the water columns were gently stirred to ensure uniform distribution. Treatments were arranged as a completely random design with 3 replications. Each container was considered the experimental unit. Greenhouse conditions were maintained at 24/18° C. (day/night) cycle for the duration of the experiment. Natural day length was supplemented with halogen lighting to provide a 14 hr photoperiod. Water level in the containers was periodically checked and maintained at the 4000 ml level for the duration of the study. After 12 weeks of exposure, weed shoot length and fresh weights were measured to ascertain herbicide effects.

Structure (SMILES)	Hydrilla Shoot Length (Hydrilla verticillata; 50 ppb acid equivalent) [cm]	Hydrilla Shoot Length (Hydrilla verticillata; 250 ppb acid equivalent) [cm]	Hydrilla Shoot Length (Hydrilla verticillata; 500 ppb acid equivalent) [cm]	Effect on the growth of hydrilla (Hydrilla verticillata; after the 11 week exposure period, 50-500 ppb)	Visual symptomology (Hydrilla verticillata; after the 11 week exposure period, intensity tended to be rate responsive)	Shoot Fresh ([1]; 250 ppb acid equivalent) [grams]	Shoot Length ([1]; 250 ppb acid equivalent) [cm]	Reduction in both shoot length and fresh weight vs. the control ([1]; 250 ppb, 12 weeks of exposure)	Visual symptomology ([1]; 12 weeks of exposure, intensity tended to be rate responsive)	Shoot Fresh ([1]; 100 ppb acid equivalent) [grams]	Shoot Length ([1]; 100 ppb acid equivalent) [cm]	Shoot Fresh ([1]; 500 ppb acid equivalent) [grams]	Shoot Length ([1]; 500 ppb acid equivalent) [cm]	Reduction in both shoot length and fresh weight vs. the control ([1]; 500 ppb, 12 weeks of exposure)
O=C(O)c1c(Cl)ccc2cc(Cl)cnc12 [Quinclorac, 3,7-dichloroquinoline-8-carboxylic acid]	15.0	8.9	6.5	significant effect on the growth of hydrilla	reduction in plant vigour and auxinic-like twisting of leaf tissue	1.5	15.7	Significant reduction						
Cc1cnc2c(C(=O)O)c(Cl)ccc2c1 [Quinmerac, 7-chloro-3-methylquinoline-8-carboxylic acid]						0.5	8.9	Significant reduction	reduction in plant vigour and auxinic-like twisting of leaf tissue	5.1	15.0	0.1	6.5	Significant reduction
